The record followed here is ChEMBL document CHEMBL1127063, “NMR and computational evidence that high-affinity bradykinin receptor antagonists adopt C-terminal beta-turns” (J Med Chem, 1993).

Assay [1] addresses T1, B2 bradykinin receptor (Cavia porcellus, UniProt O70526).
T1 sequence (O70526 whole entry): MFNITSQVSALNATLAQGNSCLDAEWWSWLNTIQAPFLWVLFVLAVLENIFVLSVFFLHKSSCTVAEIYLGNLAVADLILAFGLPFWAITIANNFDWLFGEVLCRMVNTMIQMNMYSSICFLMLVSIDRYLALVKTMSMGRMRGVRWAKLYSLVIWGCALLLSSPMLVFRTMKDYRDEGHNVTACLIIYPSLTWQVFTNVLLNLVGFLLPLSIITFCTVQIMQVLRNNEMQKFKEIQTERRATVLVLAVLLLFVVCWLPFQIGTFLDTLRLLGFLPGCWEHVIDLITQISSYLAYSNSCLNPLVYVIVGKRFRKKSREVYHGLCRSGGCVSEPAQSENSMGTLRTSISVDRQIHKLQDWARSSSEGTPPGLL
The assay can be described thus: In vitro binding affinity against bradykinin receptor B2 from guinea pig ileum. It is filed as tissue-based.

Assay [2] is filed under the species Cavia porcellus. Briefly: pA2 value against guinea pig ileum. The assay is classed as functional. Particulars: read-out: pA2 (converted).

By Ki is commonly meant the equilibrium dissociation constant of an inhibitor or competing ligand from its target. High values mean lower affinity, low ones higher affinity. On to `NC(N)=NCCC[C@@H](N)C(=O)N[C@@H](CCCN=C(N)N)C(=O)N1CCC[C@H]1C(=O)N1CCC[C@H]1C(=O)NCC(=O)N[C@@H](Cc1ccccc1)C(=O)N[C@@H](CO)C(=O)N[C@H](Cc1ccccc1)C(=O)N1C2CCCCC2C[C@H]1C(=O)N[C@@H](CCCN=C(N)N)C(=O)O` (stereo partly specified), for which the affinity in assay [1], expressed as Ki, was 0.75 nM. The Kb in assay [2] was 5.01 nM.

Compound `CCCO[C@H]1C[C@H](C(=O)N2[C@H](C(=O)N[C@@H](CCCNC(=N)N)C(=O)O)C[C@@H]3CCCC[C@@H]32)N(C(=O)[C@H](CO)NC(=O)[C@H](Cc2cccs2)NC(=O)CNC(=O)[C@@H]2C[C@@H](O)CN2C(=O)[C@@H]2CCCN2C(=O)[C@H](CCCNC(=N)N)NC(=O)[C@H](N)CCCNC(=N)N)C1` registered a Ki in assay [1] of 0.16 nM. Besides, the Kb in assay [2] was 3.16 nM.

In assay [1], `NC(N)=NCCC[C@@H](N)C(=O)N[C@@H](CCCN=C(N)N)C(=O)N1CCC[C@H]1C(=O)N1C[C@H](O)C[C@H]1C(=O)NCC(=O)N[C@@H](Cc1cccs1)C(=O)N[C@@H](CO)C(=O)N1Cc2ccccc2C[C@@H]1C(=O)N1[C@H](C(=O)N[C@@H](CCCN=C(N)N)C(=O)O)C[C@@H]2CCCC[C@@H]21` [ICATIBANT] had a Ki of 0.11 nM. Also, the Kb in assay [2] was 2 nM.
